The assay deals with T1, SIRT1 (Homo sapiens, UniProt Q96EB6).
T1 sequence (Q96EB6 1-747): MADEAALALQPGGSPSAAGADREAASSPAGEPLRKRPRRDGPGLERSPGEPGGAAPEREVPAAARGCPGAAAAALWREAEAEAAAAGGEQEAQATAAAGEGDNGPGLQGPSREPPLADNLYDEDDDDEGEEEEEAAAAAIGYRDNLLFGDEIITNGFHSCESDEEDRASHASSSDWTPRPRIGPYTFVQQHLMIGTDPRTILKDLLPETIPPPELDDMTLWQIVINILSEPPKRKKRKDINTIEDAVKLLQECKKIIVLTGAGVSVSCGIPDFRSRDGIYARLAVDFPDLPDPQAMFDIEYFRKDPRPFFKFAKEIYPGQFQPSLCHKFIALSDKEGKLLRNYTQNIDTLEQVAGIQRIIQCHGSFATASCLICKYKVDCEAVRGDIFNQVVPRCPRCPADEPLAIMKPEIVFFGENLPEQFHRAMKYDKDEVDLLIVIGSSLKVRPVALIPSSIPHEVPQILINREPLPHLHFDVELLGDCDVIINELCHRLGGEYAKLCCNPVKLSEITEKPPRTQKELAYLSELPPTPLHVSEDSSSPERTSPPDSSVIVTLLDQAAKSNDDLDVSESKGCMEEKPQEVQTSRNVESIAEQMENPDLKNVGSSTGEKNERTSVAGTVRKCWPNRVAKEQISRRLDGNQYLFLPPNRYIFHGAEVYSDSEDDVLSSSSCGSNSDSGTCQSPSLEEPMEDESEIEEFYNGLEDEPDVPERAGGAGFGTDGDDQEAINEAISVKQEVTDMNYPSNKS
Nature of the assay: mass spectrometry based assay to identify modulators of SIRT1 activity (deacetylation of p53-based acetylated peptide). In kind it is biochemical. Conditions: SIRT1 activation, 10 nM SIRT1, 0.5 μM peptide substrate, 120 μM βNAD+, 25 minutes at 25° C.; for Emax: 25 min, read-out: % Fold Act. (percent maximum fold activation). An excerpt:
A mass spectrometry based assay was used to identify modulators of SIRT1 activity. The mass spectrometry based assay utilizes a peptide having 20 amino acid residues as follows: Ac-EE-K(biotin)-GQSTSSHSK(Ac)NleSTEG-K(5TMR)-EE-NH2 (SEQ ID NO: 1) wherein K(Ac) is an acetylated lysine residue and Nle is a norleucine. The peptide is labeled with the fluorophore 5TMR (excitation 540 nm/emission 580 nm) at the C-terminus. The sequence of the peptide substrate is based on p53 with several modifications. In addition, the methionine residue naturally present in the sequence was replaced with the norleucine because the methionine may be susceptible to oxidation during synthesis and purification.
The mass spectrometry assay is conducted as follows: 0.5 μM peptide substrate and 120 μM βNAD^+ is incubated with 10 nM SIRT1 for 25 minutes at 25° C. in a reaction buffer (50 mM Tris-acetate pH 8, 137 mM NaCl, 2.7 mM KCl, 1 mM MgCl2, 5 mM DTT, 0.05% BSA). Test compounds may be added to the reaction as described above. The SirT1 gene is cloned into a T7-promoter containing vector and transformed into BL21(DE3). After the 25 minute incubation with SIRT1, 10 μL of 10% formic acid is added to stop the reaction. Reactions are sealed and frozen for later mass spec analysis. Determination of the mass of the substrate peptide allows for precise determination of the degree of acetylation (i.e. starting material) as compared to deacetylated peptide (product).
A control for inhibition of sirtuin activity is conducted by adding 1 μL of 500 mM nicotinamide as a negative control at the start of the reaction (e.g., permits determination of maximum sirtuin inhibition). A control for activation of sirtuin activity is conducted using 10 nM of sirtuin protein, with 1 μL of DMSO in place of compound, to determine the amount of deacetylation of the substrate at a given timepoint within the linear range of the assay. This timepoint is the same as that used for test compounds and, within the linear range, the endpoint represents a change in velocity.
For the above assay, SIRT1 protein was expressed and purified as follows. The SirT1 gene was cloned into a T7-promoter containing vector and transformed into BL21(DE3). The protein was expressed by induction with 1 mM IPTG as an N-terminal His-tag fusion protein at 18° C. overnight and harvested at 30,000×g. Cells were lysed with lysozyme in lysis buffer (50 mM Tris-HCl, 2 mM Tris[2-carboxyethyl]phosphine (TCEP), 10 μM ZnCl2, 200 mM NaCl) and further treated with sonication for 10 min for complete lysis. The protein was purified over a Ni-NTA column (Amersham) and fractions containing pure protein were pooled, concentrated and run over a sizing column (Sephadex S200 26/60 global). The peak containing soluble protein was collected and run on an Ion-exchange column (MonoQ). Gradient elution (200 mM-500 mM NaCl) yielded pure protein. This protein was concentrated and dialyzed against dialysis buffer (20 mM Tris-HCl, 2 mM TCEP) overnight. The protein was aliquoted and frozen at −80° C. until further use.
Sirtuin modulating compounds that activated SIRT1 were identified using the assay described above and are shown below in Table 1. The EC1-5 values for the activating compounds are represented by A (EC1-5<1.0 uM), B (EC1-5 1-25 uM), C (EC1-5>25 uM). The percent maximum fold activation is represented by A (Fold activation>150%) or B (Fold Activation<150%).

Some results are limits rather than exact numbers.

On to `O=C(Nc1cccc2oc(-c3ccccc3)nc12)c1cscn1` [Compound 100], for which the Emax was less than 150% and the EC1.5 entry was “C (EC1-5>25 uM)”.

With `O=C(Nc1cccc2oc(-c3ccccc3)nc12)c1cnccn1` [Compound 101], the Emax is less than 150% and the EC1.5 entry was “C (EC1-5>25 uM)”.

Take `O=C(Nc1cccc2oc(-c3cccc(C(F)(F)F)c3)nc12)c1cscn1` [Compound 102]: the Emax is less than 150% and the EC1.5 result is on record as “C (EC1-5>25 uM)”.

`O=C(Nc1cccc2oc(-c3cccc(C(F)(F)F)c3)nc12)c1cnccn1` [Compound 103]: the Emax was less than 150% and the EC1.5 entry is reported as “C (EC1-5>25 uM)”.

In the case of `O=C(Nc1cccc2oc(-c3cccc(OC(F)(F)F)c3)nc12)c1cscn1` [Compound 104, N-(2-(3-(trifluoromethoxy)phenyl)benzo[d]oxazol-4-yl)thiazole-4-carboxamide], the Emax is less than 150% and the EC1.5 result was “C (EC1-5>25 uM)”.

As for `O=C(Nc1cccc2oc(-c3cccc(OC(F)(F)F)c3)nc12)c1cnccn1` [Compound 105], the Emax was less than 150% and the EC1.5 entry was “C (EC1-5>25 uM)”.

`O=C(Nc1nccs1)c1cccc2nc(-c3cccc(C(F)(F)F)c3)oc12` [Compound 106]: the Emax is less than 150% and the EC1.5 result is “C (EC1-5>25 uM)”.

Regarding `O=C(Nc1ccccn1)c1cccc2nc(-c3cccc(C(F)(F)F)c3)oc12` [Compound 107], the Emax was less than 150% and the EC1.5 result is on record as “C (EC1-5>25 uM)”.

Regarding `O=C(Nc1cccnc1)c1cccc2nc(-c3cccc(C(F)(F)F)c3)oc12` [Compound 108], the Emax is greater than 150% and the EC1.5 result is listed as “B (EC1-5 1-25 uM)”.

For the compound `O=C(Nc1nccs1)c1ccnc2sc(-c3cccc(C(F)(F)F)c3)nc12` [Compound 109], the Emax was less than 150% and the EC1.5 entry is “C (EC1-5>25 uM)”.

`O=C(Nc1ccccn1)c1ccnc2sc(-c3cccc(C(F)(F)F)c3)nc12` [Compound 110]: the Emax was less than 150% and the EC1.5 entry is on record as “C (EC1-5>25 uM)”.

`O=C(Nc1nccs1)c1cccc2sc(-c3cccc(C(F)(F)F)c3)nc12` [Compound 111]: the Emax is less than 150% and the EC1.5 result was “C (EC1-5>25 uM)”.

For `O=C(Nc1ccccn1)c1cccc2sc(-c3cccc(C(F)(F)F)c3)nc12` [Compound 112], the Emax was less than 150% and the EC1.5 entry is reported as “C (EC1-5>25 uM)”.

For the compound `O=C(Nc1cccnc1)c1cccc2sc(-c3cccc(C(F)(F)F)c3)nc12` [Compound 113], the Emax was less than 150% and the EC1.5 entry is given as “C (EC1-5>25 uM)”.

For `O=C(Nc1nccs1)c1cccc2sc(-c3cccc(OC(F)(F)F)c3)nc12` [Compound 114], the Emax is less than 150% and the EC1.5 entry is reported as “C (EC1-5>25 uM)”.

Regarding `O=C(Nc1ccccn1)c1cccc2sc(-c3cccc(OC(F)(F)F)c3)nc12` [Compound 115], the Emax is less than 150% and the EC1.5 entry is listed as “C (EC1-5>25 uM)”.

For `O=C(Nc1cccnc1)c1cccc2sc(-c3cccc(OC(F)(F)F)c3)nc12` [Compound 116], the Emax was less than 150% and the EC1.5 result is “C (EC1-5>25 uM)”.

Consider `O=C(Nc1nccs1)c1cccc2nc(-c3ccccc3OC(F)(F)F)oc12` [Compound 117], for which the Emax is less than 150% and the EC1.5 entry is listed as “B (EC1-5 1-25 uM)”.

In the case of `O=C(Nc1ccccn1)c1cccc2nc(-c3ccccc3OC(F)(F)F)oc12` [Compound 118], the Emax was greater than 150% and the EC1.5 result is “B (EC1-5 1-25 uM)”.

With `O=C(Nc1nc(CN2CCOCC2)cs1)c1cccc2nc(-c3ccccc3OC(F)(F)F)oc12` [Compound 119], the Emax is greater than 150% and the EC1.5 result is given as “B (EC1-5 1-25 uM)”.

In the case of `O=C(Nc1cccc(CN2CCOCC2)n1)c1cccc2nc(-c3ccccc3OC(F)(F)F)oc12` [Compound 120], the Emax was greater than 150% and the EC1.5 result is “A (EC1-5<1.0 uM)”.

For the compound `O=C(Nc1nccs1)c1cccc2nc(-c3ccccc3C(F)(F)F)oc12` [Compound 121], the Emax was greater than 150% and the EC1.5 result was “B (EC1-5 1-25 uM)”.

As for `O=C(Nc1ccccn1)c1cccc2nc(-c3ccccc3C(F)(F)F)oc12` [Compound 122], the Emax is greater than 150% and the EC1.5 entry is reported as “B (EC1-5 1-25 uM)”.

Turning to `O=C(Nc1nc(CN2CCOCC2)cs1)c1cccc2nc(-c3ccccc3C(F)(F)F)oc12` [Compound 123], the Emax is greater than 150% and the EC1.5 result is “B (EC1-5 1-25 uM)”.

For `O=C(Nc1cccc(CN2CCOCC2)n1)c1cccc2nc(-c3ccccc3C(F)(F)F)oc12` [Compound 124], the Emax was greater than 150% and the EC1.5 entry is on record as “A (EC1-5<1.0 uM)”.

On to `O=C(Nc1nccs1)c1cccc2sc(-c3cccc(N4CCOCC4)c3)nc12` [Compound 125], for which the Emax is less than 150% and the EC1.5 result is reported as “C (EC1-5>25 uM)”.

`O=C(Nc1ccccn1)c1cccc2sc(-c3cccc(N4CCOCC4)c3)nc12` [Compound 126]: the Emax is less than 150% and the EC1.5 result is reported as “C (EC1-5>25 uM)”.

Consider `O=C(Nc1cccnc1)c1cccc2sc(-c3cccc(N4CCOCC4)c3)nc12` [Compound 127], for which the Emax is less than 150% and the EC1.5 result is reported as “C (EC1-5>25 uM)”.

As to `O=C(Nc1nccs1)c1cccc2sc(-c3cccnc3)nc12` [Compound 128], the Emax was less than 150% and the EC1.5 entry is listed as “C (EC1-5>25 uM)”.

For `O=C(Nc1ccccn1)c1cccc2sc(-c3cccnc3)nc12` [Compound 129], the Emax is less than 150% and the EC1.5 entry is given as “C (EC1-5>25 uM)”.

As to `O=C(Nc1nccs1)c1cccc2nc(-c3ccc(F)cc3C(F)(F)F)oc12` [Compound 130], the Emax is less than 150% and the EC1.5 result is on record as “B (EC1-5 1-25 uM)”.

For `O=C(Nc1ccccn1)c1cccc2nc(-c3ccc(F)cc3C(F)(F)F)oc12` [Compound 131], the Emax was greater than 150% and the EC1.5 entry was “B (EC1-5 1-25 uM)”.

Regarding `O=C(Nc1nc(CN2CCOCC2)cs1)c1cccc2nc(-c3ccc(F)cc3C(F)(F)F)oc12` [Compound 132], the Emax was greater than 150% and the EC1.5 result is recorded as “B (EC1-5 1-25 uM)”.

For the compound `O=C(Nc1cccc(CN2CCOCC2)n1)c1cccc2nc(-c3ccc(F)cc3C(F)(F)F)oc12` [Compound 133], the Emax was greater than 150% and the EC1.5 result is “B (EC1-5 1-25 uM)”.

In the case of `O=C(Nc1ccccn1)c1cccc2nc(-c3cc(F)ccc3C(F)(F)F)oc12` [Compound 134], the Emax is less than 150% and the EC1.5 entry is recorded as “B (EC1-5 1-25 uM)”.
